Test results taken from the supplement of paper PMC8671470.
± gives the standard deviation of the averaged measurements.

test system: HL-60; assay: cell viability (% survival relative to DMSO control); higher = less cytotoxic; conditions: 1 µM; 72 h; co-treatment: pictilisib 100 nM
Method in brief: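 A rescreen of the full library used HL-60 cells in RPMI 1640 with 10% FBS on 384-well plates, run in duplicate at five tenfold concentrations (1–10,000 nM). Each screen included DMSO or 100 nM of one of three metabolic inhibitors and ran 72 h at 37 °C, 5% CO2. CellTiter-Glo viability was scaled between DMSO and 10 μM proteasome-inhibitor wells. Any area under the curve comes from four-parameter log-logistic fits with drc and PharmacoGx.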

SMILES	cell viability
NC(=O)c1cccc(-c2cccc(OC(=O)NC3CCCCC3)c2)c1 [URB-597]	97.2 ± 8.2%
O=C1O[C@H]([C@@H](O)CO)C(O)=C1O [Vitamin C (ascorbate)]	95.46 ± 0.63%

same assay, conditions: 10 µM; 72 h; co-treatment: AZD3965 100 nM

SMILES	cell viability
O=C(C1CC1)N1CC[C@@H](C=C2NNC(=O)N2c2ccc(-c3ccc4occc4c3)cc2)C1	68.9 ± 1.8%
C[C@H](NC(=O)c1sccc1OCc1ccc(Cl)cc1)c1ccccc1	92.2 ± 10%
O=C(O)C1=CC(=C(c2ccc(O)c(C(=O)O)c2)c2ccc(O)c(C(=O)O)c2)C=CC1=O [Aurintricarboxylic acid]	98.9 ± 3.7%
COC(=O)[C@]12CCC(C)(C)C[C@H]1[C@H]1C(=O)C=C3[C@@]4(C)C=C(C#N)C(=O)C(C)(C)[C@@H]4CC[C@@]3(C)[C@]1(C)CC2 [Bardoxolone methyl]	32.6 ± 44%
Cc1c(-c2ccc(-c3ccccc3F)cc2)nc2ccc(F)cc2c1C(=O)O [Brequinar]	68.2 ± 15%
Nc1nc(Cl)nc2c1ncn2[C@H]1C[C@H](O)[C@@H](CO)O1 [Cladribine]	3.27 ± 0.58%
O=C1c2cc([N+](=O)[O-])ccc2-n2c1nc1ccccc1c2=O [GNF-Pf-3777]	2.3 ± 0.41%
C=C(C)[C@H]1Cc2c(ccc3c2O[C@@H]2COc4cc(OC)c(OC)cc4[C@@H]2C3=O)O1 [Rotenone]	7.8 ± 1.9%
Oc1ccc(Nc2nc(-c3ccc(Cl)cc3)cs2)cc1 [SKI II]	15.7 ± 2.8%
Cc1cn([C@H]2C[C@H](O)[C@@H](COP(=O)(O)OP(=O)(O)O)O2)c(=O)[nH]c1=O [Thymidine diphosphate]	98.5 ± 4.8%
CN(C)c1cc(NC(=O)CNC(C)(C)C)c(O)c2c1C[C@H]1C[C@H]3[C@H](N(C)C)C(=O)C(C(N)=O)C(=O)[C@@]3(O)C(=O)C1C2=O (stereo partly drawn) [Tigecycline]	101 ± 3.3%
COc1ccc2c(C(=S)N(C)CC(=O)O)cccc2c1C(F)(F)F [Tolrestat]	98.253 ± 0.033%
CCC(=O)N1CCN(c2ccc(-n3c(=O)ccc4cnc5ccc(-c6cnc7ccccc7c6)cc5c43)cc2C(F)(F)F)CC1 [Torin1]	51.4 ± 2.1%
NC(=O)c1cccc(-c2cccc(OC(=O)NC3CCCCC3)c2)c1 [URB-597]	103 ± 2%
O=C1O[C@H]([C@@H](O)CO)C(O)=C1O [Vitamin C (ascorbate)]	67.9 ± 35%

same assay, conditions: 10 µM; 72 h; co-treatment: DMSO vehicle

SMILES	cell viability
O=C(C1CC1)N1CC[C@@H](C=C2NNC(=O)N2c2ccc(-c3ccc4occc4c3)cc2)C1	85.8 ± 5.1%
C[C@H](NC(=O)c1sccc1OCc1ccc(Cl)cc1)c1ccccc1	97.6 ± 3.9%
O=C(O)C1=CC(=C(c2ccc(O)c(C(=O)O)c2)c2ccc(O)c(C(=O)O)c2)C=CC1=O [Aurintricarboxylic acid]	97.6 ± 3.1%
COC(=O)[C@]12CCC(C)(C)C[C@H]1[C@H]1C(=O)C=C3[C@@]4(C)C=C(C#N)C(=O)C(C)(C)[C@@H]4CC[C@@]3(C)[C@]1(C)CC2 [Bardoxolone methyl]	107 ± 1.7%
Cc1c(-c2ccc(-c3ccccc3F)cc2)nc2ccc(F)cc2c1C(=O)O [Brequinar]	81.3 ± 6.8%
Nc1nc(Cl)nc2c1ncn2[C@H]1C[C@H](O)[C@@H](CO)O1 [Cladribine]	4.06 ± 0.94%
O=C1c2cc([N+](=O)[O-])ccc2-n2c1nc1ccccc1c2=O [GNF-Pf-3777]	12.6 ± 4.2%
C=C(C)[C@H]1Cc2c(ccc3c2O[C@@H]2COc4cc(OC)c(OC)cc4[C@@H]2C3=O)O1 [Rotenone]	10.4 ± 4%
Oc1ccc(Nc2nc(-c3ccc(Cl)cc3)cs2)cc1 [SKI II]	22.1 ± 9%
Cc1cn([C@H]2C[C@H](O)[C@@H](COP(=O)(O)OP(=O)(O)O)O2)c(=O)[nH]c1=O [Thymidine diphosphate]	95.1 ± 5.3%
CN(C)c1cc(NC(=O)CNC(C)(C)C)c(O)c2c1C[C@H]1C[C@H]3[C@H](N(C)C)C(=O)C(C(N)=O)C(=O)[C@@]3(O)C(=O)C1C2=O (stereo partly drawn) [Tigecycline]	105 ± 3.9%
COc1ccc2c(C(=S)N(C)CC(=O)O)cccc2c1C(F)(F)F [Tolrestat]	103.9 ± 0.94%
CCC(=O)N1CCN(c2ccc(-n3c(=O)ccc4cnc5ccc(-c6cnc7ccccc7c6)cc5c43)cc2C(F)(F)F)CC1 [Torin1]	65.4 ± 8.4%
NC(=O)c1cccc(-c2cccc(OC(=O)NC3CCCCC3)c2)c1 [URB-597]	102 ± 2.3%
O=C1O[C@H]([C@@H](O)CO)C(O)=C1O [Vitamin C (ascorbate)]	88.3 ± 13%

same assay, conditions: 10 µM; 72 h; co-treatment: GSK2194069 100 nM

SMILES	cell viability
O=C(C1CC1)N1CC[C@@H](C=C2NNC(=O)N2c2ccc(-c3ccc4occc4c3)cc2)C1	82.4 ± 3.5%
C[C@H](NC(=O)c1sccc1OCc1ccc(Cl)cc1)c1ccccc1	92.5 ± 3.7%
O=C(O)C1=CC(=C(c2ccc(O)c(C(=O)O)c2)c2ccc(O)c(C(=O)O)c2)C=CC1=O [Aurintricarboxylic acid]	82.5 ± 11%
COC(=O)[C@]12CCC(C)(C)C[C@H]1[C@H]1C(=O)C=C3[C@@]4(C)C=C(C#N)C(=O)C(C)(C)[C@@H]4CC[C@@]3(C)[C@]1(C)CC2 [Bardoxolone methyl]	54.3 ± 56%
Cc1c(-c2ccc(-c3ccccc3F)cc2)nc2ccc(F)cc2c1C(=O)O [Brequinar]	76.8 ± 7.7%
Nc1nc(Cl)nc2c1ncn2[C@H]1C[C@H](O)[C@@H](CO)O1 [Cladribine]	4.3 ± 2.3%
O=C1c2cc([N+](=O)[O-])ccc2-n2c1nc1ccccc1c2=O [GNF-Pf-3777]	8.8 ± 9.7%
C=C(C)[C@H]1Cc2c(ccc3c2O[C@@H]2COc4cc(OC)c(OC)cc4[C@@H]2C3=O)O1 [Rotenone]	12.9 ± 0.53%
Oc1ccc(Nc2nc(-c3ccc(Cl)cc3)cs2)cc1 [SKI II]	30.7 ± 5.6%
Cc1cn([C@H]2C[C@H](O)[C@@H](COP(=O)(O)OP(=O)(O)O)O2)c(=O)[nH]c1=O [Thymidine diphosphate]	95.3 ± 9.4%
CN(C)c1cc(NC(=O)CNC(C)(C)C)c(O)c2c1C[C@H]1C[C@H]3[C@H](N(C)C)C(=O)C(C(N)=O)C(=O)[C@@]3(O)C(=O)C1C2=O (stereo partly drawn) [Tigecycline]	103 ± 11%
COc1ccc2c(C(=S)N(C)CC(=O)O)cccc2c1C(F)(F)F [Tolrestat]	97.1 ± 8.5%
CCC(=O)N1CCN(c2ccc(-n3c(=O)ccc4cnc5ccc(-c6cnc7ccccc7c6)cc5c43)cc2C(F)(F)F)CC1 [Torin1]	72.7 ± 3.2%
NC(=O)c1cccc(-c2cccc(OC(=O)NC3CCCCC3)c2)c1 [URB-597]	104 ± 6.6%
O=C1O[C@H]([C@@H](O)CO)C(O)=C1O [Vitamin C (ascorbate)]	95.5 ± 1.6%

same assay, conditions: 10 µM; 72 h; co-treatment: pictilisib 100 nM

SMILES	cell viability
O=C(C1CC1)N1CC[C@@H](C=C2NNC(=O)N2c2ccc(-c3ccc4occc4c3)cc2)C1	73.1 ± 6.3%
